Where “and” joins values, the source holds several entries; their conditions need not be identical. Equal values may be shown once.
Test system: Jurkat T cells
Assay: RNA-seq of Jurkat T cells
Type: cell-based, human
Protocol: RNA-seq and bioinformatics analysis. Jurkat T cells were grown to confluence in 100 mm plates in complete medium and incubated with 10 μM BT2 or vehicle for 4 h. Total RNA was extracted using the RNeasy Mini Kit (Qiagen, cat. no. 74004) with modification. Briefly, cells were washed twice with pre-cooled 1×PBS and TRIzol reagent (Thermo Fisher Scientific cat. no. 15596026) was added to lyse the cells. Chloroform was added to the mixture before microfuge centrifugation at 13000 rpm for 15 min at 4° C. The upper aqueous layer containing total RNA was transferred to fresh microtubes, and isopropanol was added and loaded into RNeasy columns. Columns were washed with buffers RW1 and RPE. Total RNA was eluted from the column using ribonuclease-free water. Samples were submitted to the UNSW Ramaciotti Centre for Genomics for TruSeq Stranded mRNA-seq preparation and sequencing by One NextSeq 500 1×75 bp high-output flow cell with data output up to 400 M reads. Quality control of samples was set at >80% higher than Q30 at 1×75 bp.
RNA-seq reads were first assessed for quality using the tool FastQC (v0.11.8) www.bioinformatics.babraham.ac.uk/projects/fastqc/). The tool Salmon was used for quantifying transcript abundance from RNA-seq reads (Patro et al., 2017). The R package DESeq2 that incorporates a method for differential analysis of count data was then used to identify differentially expressed genes across specific comparisons (Love et al., 2014). This package was also used to perform principal component analysis. […] The ggplot2 R package was used to prepare bar plots, scatter plots, and density plots. The pheatmap R package was used to generate distance matrices, and clustered heatmaps. DESeq2 output was used to generate a ranked list for input into GSEA Pre-ranked (v6.0.12, Broad Institute) (Subramanian et al., 2005) for pathway analysis against the Curated (Canonical Pathway), Gene Ontology, and Hallmarks gene collections from MSigDb (Liberzon et al., 2015; Liberzon et al., 2011). Ranked scores were calculated by multiplying the sign of the log 2 fold change by the log 10 transformed adjusted p value. […] All immune response related gene sets were selected for display.
To gain insights into BT2's mode of action we conducted next generation RNA sequencing (RNA-seq) with extracts of Jurkat T cells exposed to 10 μM BT2 for 4 h.

Compound: CCOC(=O)Nc1ccc2c(c1)C(=O)N(CC)c1ccccc1O2 [BT2, (10-ethyl-11-oxo-10,11-dihydro-dibenzo[b,f][1,4]oxazepin-2-yl)-carbamic acid ethyl ester]
- ABCA4 gene expression, BT2 (10 μM BT2, 4 h, 3 replicates): 96.05 and 85.74 and 106.5
- ACTA2 gene expression, BT2 (10 μM BT2, 4 h, 3 replicates): 643.6 and 663.2 and 658.1
- ACTG2 gene expression, BT2 (10 μM BT2, 4 h, 3 replicates): 3514 and 3448 and 3526
- ADAT3 gene expression, BT2 Test 1-3 (10 μM BT2, 4 h, 3 replicates): 32.66 and 24.79 and 20.09
- ADCYAP1 gene expression, BT2 (10 μM BT2, 4 h, 3 replicates): 131.6 and 132.2 and 130.6
- ARHGAP29 gene expression, BT2 (10 μM BT2, 4 h, 3 replicates): 550.4 and 556.8 and 506.4
- ATF3 gene expression, BT2 (10 μM BT2, 4 h, 3 replicates): 975.9 and 937 and 1003
- BACH2 gene expression, BT2 (10 μM BT2, 4 h, 3 replicates): 6174.2608 and 6260 and 6009.3283
- CD248 gene expression, BT2 (10 μM BT2, 4 h, 3 replicates): 284.3 and 291.3 and 307.4
- CREB5 gene expression, BT2 (10 μM BT2, 4 h, 3 replicates): 179.6 and 175.6 and 152.7
- DMBT1 gene expression, BT2 (10 μM BT2, 4 h, 3 replicates): 193.1 and 180.8 and 166.8
- DUSP8 gene expression, BT2 (10 μM BT2, 4 h, 3 replicates): 826.1 and 821.3 and 847
- ENPP1 gene expression, BT2 (10 μM BT2, 4 h, 3 replicates): 2289 and 2283 and 2244
- EPAS1 gene expression, BT2 (10 μM BT2, 4 h, 3 replicates): 332.3 and 428.7 and 372.8
- FAM166A gene expression, BT2 Test 1-3 (10 μM BT2, 4 h, 3 replicates): 312.2 and 298.5 and 285.3
- FERMT2 gene expression, BT2 (10 μM BT2, 4 h, 3 replicates): 3161.0909 and 3299 and 3249
- FLNC gene expression, BT2 (10 μM BT2, 4 h, 3 replicates): 532.1 and 474.2 and 510.4
- GBP1 gene expression, BT2 (10 μM BT2, 4 h, 3 replicates): 6844 and 6940 and 6949
- GBP2 gene expression, BT2 (10 μM BT2, 4 h, 3 replicates): 343.9 and 332.6 and 320.5
- HIST1H2AC gene expression, BT2 Test 1-3 (10 μM BT2, 4 h, 3 replicates): 62.43 and 67.15 and 71.34
- HIST1H2AG gene expression, BT2 Test 1-3 (10 μM BT2, 4 h, 3 replicates): 51.87 and 40.29 and 74.35
- HIST2H2BE gene expression, BT2 Test 1-3 (10 μM BT2, 4 h, 3 replicates): 35.54 and 54.75 and 51.24
- IL2RA gene expression, BT2 (10 μM BT2, 4 h, 3 replicates): 168.1 and 193.2 and 169.8
- JUN gene expression, BT2 (10 μM BT2, 4 h, 3 replicates): 4079.3537 and 4087 and 4015
- JUND gene expression, BT2 (10 μM BT2, 4 h, 3 replicates): 7851.3391 and 7882 and 7703
- KCNMB1 gene expression, BT2 (10 μM BT2, 4 h, 3 replicates): 1036.4075 and 994.8 and 1082
- MAF gene expression, BT2 Test 1-3 (10 μM BT2, 4 h, 3 replicates): 49.95 and 50.62 and 48.23
- MYL4 gene expression, BT2 (10 μM BT2, 4 h, 3 replicates): 896.2 and 889.4 and 904.3
- NPAS4 gene expression, BT2 (10 μM BT2, 4 h, 3 replicates): 228.6 and 253.1 and 292.4
- NTN1 gene expression, BT2 (10 μM BT2, 4 h, 3 replicates): 0 and 193.2 and 146.7
- PRKCE gene expression, BT2 (10 μM BT2, 4 h, 3 replicates): 1433 and 1537 and 1488
- PRRT1 gene expression, BT2 Test 1-3 (10 μM BT2, 4 h, 3 replicates): 20.17 and 22.73 and 60.28
- SIRPB2 gene expression, BT2 (10 μM BT2, 4 h, 3 replicates): 112.4 and 120.9 and 128.6
- SPECC1L-ADORA2A gene expression, BT2 (10 μM BT2, 4 h, 3 replicates): 209.4 and 316.1 and 206
- TEAD3 gene expression, BT2 (10 μM BT2, 4 h, 3 replicates): 269.9 and 243.8 and 226.1
- TIMP3 gene expression, BT2 (10 μM BT2, 4 h, 3 replicates): 202.7 and 212.8 and 228.1
- TUBA1A gene expression, BT2 Test 1-3 (10 μM BT2, 4 h, 3 replicates): 4998 and 5147 and 5169
- TUBA1B gene expression, BT2 Test 1-3 (10 μM BT2, 4 h, 3 replicates): 50484.2833 and 49034.778 and 49379.7789
- TUBA1C gene expression, BT2 Test 1-3 (10 μM BT2, 4 h, 3 replicates): 9420 and 9004 and 9493
- TUBA4A gene expression, BT2 Test 1-3 (10 μM BT2, 4 h, 3 replicates): 33.62 and 39.26 and 48.23
- TUBB2A gene expression, BT2 Test 1-3 (10 μM BT2, 4 h, 3 replicates): 599.4 and 644.6 and 638
- TUBB3 gene expression, BT2 Test 1-3 (10 μM BT2, 4 h, 3 replicates): 651.2 and 705.6 and 639
- TUBB4B gene expression, BT2 Test 1-3 (10 μM BT2, 4 h, 3 replicates): 6034 and 5953 and 6048
- ZYX gene expression, BT2 (10 μM BT2, 4 h, 3 replicates): 3059 and 3209 and 3141
- ABCA4 log2Fold Change (10 μM BT2 vs vehicle, 4 h): 2.991
- ACTA2 log2Fold Change (10 μM BT2 vs vehicle, 4 h): 1.228
- ACTG2 log2Fold Change (10 μM BT2 vs vehicle, 4 h): 2.581
- ADAT3 log2Fold Change (10 μM BT2 vs vehicle, 4 h): −1.31
- ADCYAP1 log2Fold Change (10 μM BT2 vs vehicle, 4 h): 1.242
- ARHGAP29 log2Fold Change (10 μM BT2 vs vehicle, 4 h): 1.497
- ATF3 log2Fold Change (10 μM BT2 vs vehicle, 4 h): 1.019
- BACH2 log2Fold Change (10 μM BT2 vs vehicle, 4 h): 1.126
- CD248 log2Fold Change (10 μM BT2 vs vehicle, 4 h): 2.579
- CREB5 log2Fold Change (10 μM BT2 vs vehicle, 4 h): 1.577
- DMBT1 log2Fold Change (10 μM BT2 vs vehicle, 4 h): 1.424
- DUSP8 log2Fold Change (10 μM BT2 vs vehicle, 4 h): 3.811
- ENPP1 log2Fold Change (10 μM BT2 vs vehicle, 4 h): 2.594
- EPAS1 log2Fold Change (10 μM BT2 vs vehicle, 4 h): 1.187
- FAM166A log2Fold Change (10 μM BT2 vs vehicle, 4 h): −1.443
- FERMT2 log2Fold Change (10 μM BT2 vs vehicle, 4 h): 1.127
- FLNC log2Fold Change (10 μM BT2 vs vehicle, 4 h): 1.158
- GBP1 log2Fold Change (10 μM BT2 vs vehicle, 4 h): 1.317
- GBP2 log2Fold Change (10 μM BT2 vs vehicle, 4 h): 1.999
- HIST1H2AC log2Fold Change (10 μM BT2 vs vehicle, 4 h): −1.445
- HIST1H2AG log2Fold Change (10 μM BT2 vs vehicle, 4 h): −1.417
- HIST2H2BE log2Fold Change (10 μM BT2 vs vehicle, 4 h): −1.273
- IL2RA log2Fold Change (10 μM BT2 vs vehicle, 4 h): 2.06
- JUN log2Fold Change (10 μM BT2 vs vehicle, 4 h): 2.561
- JUND log2Fold Change (10 μM BT2 vs vehicle, 4 h): 1.29
- KCNMB1 log2Fold Change (10 μM BT2 vs vehicle, 4 h): 1.455
- MAF log2Fold Change (10 μM BT2 vs vehicle, 4 h): −1.032
- MYL4 log2Fold Change (10 μM BT2 vs vehicle, 4 h): 2.052
- NPAS4 log2Fold Change (10 μM BT2 vs vehicle, 4 h): 1.211
- NTN1 log2Fold Change (10 μM BT2 vs vehicle, 4 h): 6.501
- PRKCE log2Fold Change (10 μM BT2 vs vehicle, 4 h): 1.177
- PRRT1 log2Fold Change (10 μM BT2 vs vehicle, 4 h): −1.322
- SIRPB2 log2Fold Change (10 μM BT2 vs vehicle, 4 h): 1.912
- SPECC1L-ADORA2A log2Fold Change (10 μM BT2 vs vehicle, 4 h): 1.096
- TEAD3 log2Fold Change (10 μM BT2 vs vehicle, 4 h): 1.133
- TIMP3 log2Fold Change (10 μM BT2 vs vehicle, 4 h): 1.85
- TUBA1A log2Fold Change (10 μM BT2 vs vehicle, 4 h): −1.19
- TUBA1B log2Fold Change (10 μM BT2 vs vehicle, 4 h): −1.394
- TUBA1C log2Fold Change (10 μM BT2 vs vehicle, 4 h): −1.121
- TUBA4A log2Fold Change (10 μM BT2 vs vehicle, 4 h): −1.253
- TUBB2A log2Fold Change (10 μM BT2 vs vehicle, 4 h): −1.005
- TUBB3 log2Fold Change (10 μM BT2 vs vehicle, 4 h): −1.262
- TUBB4B log2Fold Change (10 μM BT2 vs vehicle, 4 h): −1.52
- ZYX log2Fold Change (10 μM BT2 vs vehicle, 4 h): 1.537
- effect on FOS like 2 expression (10 μM, 4 h): negligible effects
- effect on FOSB expression (10 μM, 4 h): negligible effects
- increase of DUSP8 mRNA expression (10 μM, 4 h): 14.1 fold
- increase of JUND levels (10 μM, 4 h): 2.4 fold
- increase of netrin-1 (NTN1) (10 μM, 4 h): 90.6 fold
- inhibition of MAF expression (10 μM, 4 h): 2 fold
- JUN induction (10 μM, within 4 h): 5.9 fold

Reference: patent US20250352555A1, “METHOD OF INCREASING IMMUNE CELL ACTIVATION AND/OR TREATING CANCER USING DIBENZOXAZEPINONES” (VASCULAR THERAPEUTICS PTY LTD, priority 2022, published 2025)
